Consider twelve compounds from patent US8951934B2, “Active compound combinations” (Bayer CropScience AG, priority 2008, dated 2015).

Like-named read-outs stand apart in the source and are kept apart here.

What all share (type): in vivo
For one assay, the system named is Pyrenophora teres. In words: Pyrenophora teres-test (barley)/preventive. As to conditions: 192 h, read-out: Efficacy in %. The text has this:
(§1) The expected fungicidal action for a given combination of two or three active compounds can be calculated as follows, according to S. R. Colby (“Calculating Synergistic and Antagonistic Responses of Herbicide Combinations”, Weeds 1961 15, 20-22):
(§2) If • X is the efficacy when employing active compound A at an application rate of m g/ha, • Y is the efficacy when employing active compound B at an application rate of n g/ha and • E is the efficacy when employing active compounds A and B at application rates of m and n g/ha,
(§3) Here, the efficacy is determined in %. 0% means an efficacy which corresponds to that of the control, whereas an efficacy of 100% means that no infection is observed.
(§4) If the actual fungicidal action exceeds the calculated value, the action of the combination is superadditive, i.e. a synergistic effect is present. In this case, the actually observed efficacy must exceed the value calculated using the above formula for the expected efficacy (E).
Pyrenophora teres-Test (Barley)/Preventive
(§5) Solvent: 49 parts by weight of n,n-dimethylacetamid
(§6) Emulsifier: 1 part by weight of alkylaryl polyglycol ether
(§7) To produce a suitable preparation of active compound, 1 part by weight of active compound or active compound combination is mixed with the stated amounts of solvent and emulsifier, and the concentrate is diluted with water to the desired concentration.
(§8) To test for preventive activity, young plants are sprayed with the preparation of active compound or active compound combination at the stated rate of application.
After the spray coating has been dried on, the plants are sprayed with a spore suspension of Pyrenophora teres. The plants remain for 48 hours in an incubation cabinet at approximately 20° C. and a relative atmospheric humidity of approximately 100%.
The plants are placed in the greenhouse at a temperature of approximately 20° C. and a relative atmospheric humidity of approximately 80%.
The test is evaluated 8 days after the inoculation. 0% means an efficacy which corresponds to that of the control, while an efficacy of 100% means that no disease is observed.

The subject of another assay is Septoria tritici. In words: Septoria tritici-test (wheat)/preventive. As to conditions: preventive spray, evaluated 21 days after inoculation.
Text: as §1, §2, §3, §4
Septoria tritici-Test (Wheat)/Preventive
as §5, §6, §7, §8
After the spray coating has been dried on, the plants are sprayed with a spore suspension of Septoria tritici. The plants remain for 48 hours in an incubation cabinet at approximately 20° C. and a relative atmospheric humidity of approximately 100% and afterwards for 60 hours at approximately 15° C. in a translucent incubation cabinet at a relative atmospheric humidity of approximately 100%.
The plants are placed in the greenhouse at a temperature of approximately 15° C. and a relative atmospheric humidity of approximately 80%.
The test is evaluated 21 days after the inoculation. 0% means an efficacy which corresponds to that of the control, while an efficacy of 100% means that no disease is observed.

Another assay deals with Uromyces appendiculatus. In words: Uromyces test (beans)/protective. As to conditions: protective spray, evaluated 10 days after inoculation.
Text: as §1, §2, §3, §4
Uromyces Test (Beans)/Protective
(§9) Solvent: 24,5 parts by weight of acetone • 24,5 parts by weight of dimethylacetamide
as §6
(§10) To produce a suitable preparation of active compound, 1 part by weight of active compound is mixed with the stated amounts of solvent and emulsifier, and the concentrate is diluted with water to the desired concentration.
To test for protective activity, young plants are sprayed with the preparation of active compound at the stated rate of application. After the spray coating has dried on, the plants are inoculated with an aqueous spore suspension of the causal agent of bean rust (Uromyces appendiculatus) and then remain for 1 day in an incubation cabinet at approximately 20° C. and a relative atmospheric humidity of 100%.
(§11) The plants are then placed in a greenhouse at approximately 21° C. and a relative atmospheric humidity of approximately 90%.
(§12) The test is evaluated 10 days after the inoculation. 0% means an efficacy which corresponds to that of the control, while an efficacy of 100% means that no disease is observed.

The test system of a further assay is Sphaerotheca fuliginea. In words: Sphaerotheca test (cucumbers)/protective. As to conditions: protective spray, evaluated 7 days after inoculation.
Text: as §1, §2, §3, §4
Sphaerotheca Test (Cucumbers)/Protective
as §9
(§13) Emulsifier: 1 part by weight of alkylaryl polyglycol ether […]
(§14) The test is evaluated 7 days after the inoculation. […]

Another assay concerns Venturia inaequalis. In words: Venturia test (apples)/protective. As to conditions: protective spray, evaluated 10 days after inoculation.
Text: as §1, §2, §3, §4
Venturia Test (Apples)/Protective
as §9, §6, §10
To test for protective activity, young plants are sprayed with the preparation of active compound at the stated rate of application. After the spray coating has dried on, the plants are inoculated with an aqueous conidia suspension of the causal agent of apple scab (Venturia inaequalis) and then remain for 1 day in an incubation cabinet at approximately 20° C. and a relative atmospheric humidity of 100%.
as §11, §12

Assay [1] relates to Blumeria graminis f.sp. tritici. In words: Blumeria test (wheat)/preventive. As to conditions: preventive spray, evaluated 7 days after inoculation.
Text: as §1, §2, §3, §4
Blumeria Test (Wheat)/Preventive
as §5, §13, §14

The mark [2] stands for this setting: barley, preventive spray, 62.5 ppm, evaluated 8 days after inoculation.

On to `CO/N=C(/C1=NOCCO1)c1ccccc1Oc1ncnc(Oc2ccccc2Cl)c1F` [Ex B1 Fluoxastrobin, Fluoxastrobin], for which the pest or weed control at 62.5 ppm with Pyrenophora teres (setting [2]) turned out to be 67%.

Turning to `CO/N=C(/C(=O)OC)c1ccccc1CO/N=C(\C)c1cccc(C(F)(F)F)c1` [Ex B1 Trifloxystrobin, Trifloxystrobin], the Efficacy in % with Septoria tritici (62.5 ppm) is 94%; in the assay with Uromyces appendiculatus (1 ppm), 70%.

As to `Cc1cc(O)no1` [Ex B2 Hymexazol, Hymexazol], the pest or weed control at 1000 ppm in the assay with Pyrenophora teres (barley, preventive spray, 1000 ppm, evaluated 8 days after inoculation) was 0%.

As for `CC(C)C1CCC(Cc2ccc(Cl)cc2)C1(O)Cn1cncn1` (stereo not drawn) [Ex B2 Ipconazole, Ipconazole], the pest or weed control at 250 ppm in the assay on Pyrenophora teres (barley, preventive spray, 250 ppm, evaluated 8 days after inoculation) amounted to 33%. Besides, the Efficacy in % in the assay on Sphaerotheca fuliginea (5 ppm) turned out to be 50%; in the assay on Sphaerotheca fuliginea (10 ppm) it was 77%.

As to `C[Si](C)(C)CC(O)(Cn1cncn1)c1ccc(F)cc1` (stereo not drawn) [Ex B2 Simeconazole, Simeconazole], the values for the Efficacy in % in the assay with Septoria tritici (1000 ppm) and in the assay on Uromyces appendiculatus (5 ppm) were 67% and 84%, respectively.

For the compound `Cn1cc(C(=O)Nc2ccc(F)cc2-c2ccc(Cl)c(Cl)c2)c(C(F)F)n1` [Ex B3 Bixafen, Bixafen], the pest or weed control at 62.5 ppm with Pyrenophora teres (setting [2]) came out at 78%. Moreover, the Efficacy in % with Venturia inaequalis (1 ppm) is reported as 73%.

In the case of `N#Cc1c[nH]cc1-c1cccc2c1OC(F)(F)O2` [Ex B4 Fludioxonil, Fludioxonil], in the assay with Pyrenophora teres, the pest or weed control at 125 ppm was found to be 44%. The Efficacy in % in the assay with Venturia inaequalis (50 ppm) is given as 26%; in the assay on Venturia inaequalis (100 ppm), 30%; in the assay on Uromyces appendiculatus (200 ppm) it was 70%.

With `COCC(=O)N(c1c(C)cccc1C)[C@H](C)C(=O)OC` [Ex B4 Metalaxyl M, Metalaxyl M], the Efficacy in % came to 0% in assay [1] (250 ppm) and 29% in the assay on Venturia inaequalis (200 ppm).

Take `COCC(=O)N(c1c(C)cccc1C)C(C)C(=O)OC` (stereo not drawn) [Ex B4 Metalaxyl, Metalaxyl]: the Efficacy in % in the assay with Septoria tritici (1000 ppm) amounted to 33%.

With `CCCN(CCOc1c(Cl)cc(Cl)cc1Cl)C(=O)n1ccnc1` [Ex B4 Prochloraz, Prochloraz], the pest or weed control at 62.5 ppm in the assay on Pyrenophora teres was 89%.

As for `N#Cc1ccccc1NC(=O)c1snc(Cl)c1Cl` [Ex I-2], the pest or weed control at 250 ppm with Pyrenophora teres amounted to 0%. Moreover, the pest or weed control at 1000 ppm in the assay on Pyrenophora teres came out at 11%. The Efficacy in % in the assay with Septoria tritici (1000 ppm) is 0%; in assay [1] (1000 ppm), 22%; in the assay on Venturia inaequalis (50 ppm), 0%; in the assay with Venturia inaequalis (100 ppm), 19%; with Venturia inaequalis (200 ppm), 37%; in the assay with Uromyces appendiculatus (50 ppm), 8%. Also, the figures for the Efficacy in % with Uromyces appendiculatus (100 ppm) and in the assay on Uromyces appendiculatus (200 ppm) were 0% and 15%, respectively.

For `Cc1nn(C)c(F)c1C(=O)Nc1ccccc1C(C)CC(C)C` (stereo not drawn) [N-[2-(1,3-Dimethylbutyl)phenyl]-5-fluor-1,3-dimethyl-1H-pyrazole-4-carboxamide], the pest or weed control at 62.5 ppm with Pyrenophora teres (setting [2]) came out at 89%.
